Measured values from article PMC12928700, “Structure of the human CTF18−RFC clamp loader bound to PCNA” (eLife, 2026).

Assays:
[1] = molecular target: T1, CTF18–RFC bound to PCNA (ADP site in RFC3) (Homo sapiens, UniProt P40938); test: cryo-EM structure ([…] Å without Mg2+; […] Å with Mg2+); format: binding; conditions: ADP in AAA+ site of RFC3, not added, probably co-purified; seen with and without Mg2+
T1 construct: same complex as P1; RFC3 with N-terminal His6 tag, insect cells; Ctf8/Dcc1 module not resolved in map; with Chromosome transmission fidelity protein 18 homolog; Replication factor C subunit 2; Replication factor C subunit 4; Replication factor C subunit 5; Sister chromatid cohesion protein DCC1; Chromosome transmission fidelity protein 8 homolog; Proliferating cell nuclear antigen

[2] = molecular target: T2, CTF18–RFC bound to PCNA (ATP sites in Ctf18, RFC2, RFC5) (Homo sapiens, UniProt P35250+P40937+Q8WVB6); test: as above; format: binding; conditions: ATP in AAA+ sites of Ctf18 (adenine density poor), RFC2 and RFC5; RFC4 empty; 0.5 mM ATP, pH 7.5, without Mg2+ or with 5 mM Mg2+ (Mg2+ seen in RFC2 and RFC5); autoinhibited state, closed PCNA
T2 construct: gene CHTF18; seven-subunit complex from insect cells (MultiBac, Sf9/Hi5); N-terminal twin-Strep-TEV tag (Ctf18, RFC2, RFC4) and N-terminal His6 tag (RFC3, RFC5, Dcc1, Ctf8), TEV treated; PCNA from E. coli; Ctf8/Dcc1 module not resolved in map; with Replication factor C subunit 4; Replication factor C subunit 3; Sister chromatid cohesion protein DCC1; Chromosome transmission fidelity protein 8 homolog; Proliferating cell nuclear antigen

Structure (SMILES) | cryo-EM structure (2.9 Å without Mg2+; 3.2 Å with Mg2+) [1] | cryo-EM structure (2.9 Å without Mg2+; 3.2 Å with Mg2+) [2]
Nc1ncnc2c1ncn2[C@@H]1O[C@H](COP(=O)(O)OP(=O)(O)O)[C@@H](O)[C@H]1O [ADP] | while ADP appears to engage RFC3 | 
Nc1ncnc2c1ncn2[C@@H]1O[C@H](COP(=O)(O)OP(=O)(O)OP(=O)(O)O)[C@@H](O)[C@H]1O [ATP] |  | ATP is bound to subunits Ctf18, RFC2, and RFC5, while ADP appears to engage RFC3
